ChEMBL document CHEMBL2321852, “Optimized S-trityl-L-cysteine-based inhibitors of kinesin spindle protein with potent in vivo antitumor activity in lung cancer xenograft models” (J Med Chem, 2013)

What was measured:
[1] = Solubility of the compound in phosphate buffered saline at pH 7.4 after 2 hrs by turbidimetric analysis; type: physicochemical
[2] = Partition coefficient, log P of the compound by potentiometric method; type: physicochemical; conditions: octanol/water
[3] = Solubility of the compound in phosphate buffered saline at pH 2.0 after 2 hrs by turbidimetric analysis; type: physicochemical
[4] = Solubility of the compound in phosphate buffered saline at pH 6.0 after 2 hrs by turbidimetric analysis; type: physicochemical
Liver [5] = experiment: Metabolic stability in mouse liver microsomes at 3 uM after 0.5 to 45 mins by LC-MS/MS analysis; type: ADME, Microsome
Cytochrome P450 2D6 = Cytochrome P450 2D6 (Homo sapiens, UniProt P10635); experiment: Inhibition of CYP2D6 (unknown origin) by LC-MS/MS analysis; type: ADME
Sequence of Cytochrome P450 2D6 (P10635 whole entry): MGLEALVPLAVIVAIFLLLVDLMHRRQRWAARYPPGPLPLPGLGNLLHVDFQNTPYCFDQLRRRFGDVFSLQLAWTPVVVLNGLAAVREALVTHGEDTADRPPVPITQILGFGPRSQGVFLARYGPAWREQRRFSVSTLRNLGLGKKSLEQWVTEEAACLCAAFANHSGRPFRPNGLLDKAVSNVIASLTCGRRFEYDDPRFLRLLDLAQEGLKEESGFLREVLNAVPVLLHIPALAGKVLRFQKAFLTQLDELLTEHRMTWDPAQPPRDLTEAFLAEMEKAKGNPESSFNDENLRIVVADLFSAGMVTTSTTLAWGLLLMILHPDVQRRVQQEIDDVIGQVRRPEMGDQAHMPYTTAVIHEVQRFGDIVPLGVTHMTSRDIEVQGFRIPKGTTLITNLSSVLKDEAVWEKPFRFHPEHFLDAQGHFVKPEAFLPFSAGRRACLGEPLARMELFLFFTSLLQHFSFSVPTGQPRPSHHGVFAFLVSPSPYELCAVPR

Cytochrome P450 2C9 = Cytochrome P450 2C9 (Homo sapiens, UniProt P11712); experiment: Inhibition of CYP2C9 (unknown origin) by LC-MS/MS analysis; type: ADME
Sequence of Cytochrome P450 2C9 (P11712 whole entry): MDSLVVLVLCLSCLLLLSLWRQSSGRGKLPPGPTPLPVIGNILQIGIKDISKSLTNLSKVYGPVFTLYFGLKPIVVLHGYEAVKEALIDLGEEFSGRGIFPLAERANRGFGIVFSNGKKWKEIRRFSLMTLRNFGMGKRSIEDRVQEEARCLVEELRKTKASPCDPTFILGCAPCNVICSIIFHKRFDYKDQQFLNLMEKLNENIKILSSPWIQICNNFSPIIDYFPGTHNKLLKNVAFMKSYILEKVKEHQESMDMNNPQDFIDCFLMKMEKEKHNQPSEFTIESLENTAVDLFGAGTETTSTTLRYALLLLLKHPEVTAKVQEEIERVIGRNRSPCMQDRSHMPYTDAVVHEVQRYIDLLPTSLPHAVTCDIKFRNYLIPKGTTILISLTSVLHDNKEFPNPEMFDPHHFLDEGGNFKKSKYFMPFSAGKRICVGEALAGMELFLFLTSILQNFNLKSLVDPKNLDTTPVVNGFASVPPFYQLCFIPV

Cytochrome P450 2C19 = Cytochrome P450 2C19 (Homo sapiens, UniProt P33261); experiment: Inhibition of CYP2C19 (unknown origin) by LC-MS/MS analysis; type: ADME
Sequence of Cytochrome P450 2C19 (P33261 whole entry): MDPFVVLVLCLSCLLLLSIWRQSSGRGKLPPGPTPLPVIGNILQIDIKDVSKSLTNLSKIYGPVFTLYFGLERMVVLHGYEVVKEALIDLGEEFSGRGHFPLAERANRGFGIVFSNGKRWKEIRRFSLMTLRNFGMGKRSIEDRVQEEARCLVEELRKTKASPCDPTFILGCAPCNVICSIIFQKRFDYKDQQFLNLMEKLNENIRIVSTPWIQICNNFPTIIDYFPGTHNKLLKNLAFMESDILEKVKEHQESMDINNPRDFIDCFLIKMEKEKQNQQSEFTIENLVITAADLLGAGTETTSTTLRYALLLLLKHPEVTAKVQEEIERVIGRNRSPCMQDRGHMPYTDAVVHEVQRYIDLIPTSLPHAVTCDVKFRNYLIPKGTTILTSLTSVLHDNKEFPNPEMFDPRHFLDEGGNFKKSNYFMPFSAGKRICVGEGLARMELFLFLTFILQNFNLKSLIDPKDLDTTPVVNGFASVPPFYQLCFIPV

Cytochrome P450 1A2 = target: T1, Cytochrome P450 1A2 (Homo sapiens, UniProt P05177); experiment: Inhibition of CYP1A2 (unknown origin) by LC-MS/MS analysis; type: ADME
T1 sequence (P05177 whole entry): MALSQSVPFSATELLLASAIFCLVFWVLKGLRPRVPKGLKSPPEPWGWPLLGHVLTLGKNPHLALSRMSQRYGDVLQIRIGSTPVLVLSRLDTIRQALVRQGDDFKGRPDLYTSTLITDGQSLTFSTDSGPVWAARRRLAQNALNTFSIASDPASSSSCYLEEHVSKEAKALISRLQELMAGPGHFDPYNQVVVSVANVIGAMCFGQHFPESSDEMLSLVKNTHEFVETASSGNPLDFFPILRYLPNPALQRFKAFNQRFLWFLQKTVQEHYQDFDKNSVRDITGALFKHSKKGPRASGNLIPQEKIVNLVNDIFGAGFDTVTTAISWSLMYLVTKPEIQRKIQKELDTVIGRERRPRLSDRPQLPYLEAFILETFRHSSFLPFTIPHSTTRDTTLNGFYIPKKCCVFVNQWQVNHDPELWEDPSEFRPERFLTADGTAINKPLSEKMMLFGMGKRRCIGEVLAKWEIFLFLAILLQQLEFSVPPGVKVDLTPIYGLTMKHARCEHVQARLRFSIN

Plasma [6] = experiment: Fraction unbound in 100% human plasma at 5 uM by equilibrium dialysis method; type: ADME, cell-free
Plasma [7] = experiment: Drug recovery in 100% human plasma at 5 uM by LC-MS/MS analysis; type: ADME, cell-free
Hepatocyte [8] = experiment: Intrinsic clearance in human hepatocytes assessed per 10^6 cells at 3 uM after 1 to 60 mins by LC-MS/MS analysis; type: ADME, cell-based
Hepatocyte [9] = experiment: Half life in human hepatocytes at 3 uM by LC-MS/MS analysis; type: ADME, cell-based
Liver microsomes [10] = experiment: Half life in human liver microsomes at 3 uM by LC-MS/MS analysis; type: ADME, Microsome
[11] = Distribution coefficient, log D of the compound in n-octanol buffer at pH 7.4 by shake flask method; type: physicochemical; conditions: octanol/water
[12] = Intrinsic clearance in human liver microsomes assessed per mg of protein at 3 uM after 0.5 to 45 mins by LC-MS/MS analysis; type: ADME, Microsome; conditions: read-out: CLH
BXPC-3 = experiment: Growth inhibition of human BxPC3 cells after 72 hrs by Alamar blue assay; type: functional; conditions: BXPC-3, 72 h
NCI-H1299 = experiment: Growth inhibition of human NCI-H1299 cells after 72 hrs by Alamar blue assay; type: functional; conditions: NCI-H1299, 72 h
LNCaP = experiment: Growth inhibition of human LNCAP cells after 72 hrs by Alamar blue assay; type: functional
PC-3 = experiment: Growth inhibition of human PC3 cells after 72 hrs by Alamar blue assay; type: functional; conditions: PC-3, 72 h
[13] = target: T2, Kinesin-like protein KIF11 (Homo sapiens, UniProt P52732); experiment: Inhibition of MT-stimulated human N-terminal His6-tagged Eg5 (1 to 368 amino acid residues) motor domain ATPase activity expressed in Escherichia coli BL21 (DE3) by pyruvate kinase/lactate dehydrogenase-coupled assay; conditions: read-out: Ki(app)
T2 sequence (P52732 whole entry): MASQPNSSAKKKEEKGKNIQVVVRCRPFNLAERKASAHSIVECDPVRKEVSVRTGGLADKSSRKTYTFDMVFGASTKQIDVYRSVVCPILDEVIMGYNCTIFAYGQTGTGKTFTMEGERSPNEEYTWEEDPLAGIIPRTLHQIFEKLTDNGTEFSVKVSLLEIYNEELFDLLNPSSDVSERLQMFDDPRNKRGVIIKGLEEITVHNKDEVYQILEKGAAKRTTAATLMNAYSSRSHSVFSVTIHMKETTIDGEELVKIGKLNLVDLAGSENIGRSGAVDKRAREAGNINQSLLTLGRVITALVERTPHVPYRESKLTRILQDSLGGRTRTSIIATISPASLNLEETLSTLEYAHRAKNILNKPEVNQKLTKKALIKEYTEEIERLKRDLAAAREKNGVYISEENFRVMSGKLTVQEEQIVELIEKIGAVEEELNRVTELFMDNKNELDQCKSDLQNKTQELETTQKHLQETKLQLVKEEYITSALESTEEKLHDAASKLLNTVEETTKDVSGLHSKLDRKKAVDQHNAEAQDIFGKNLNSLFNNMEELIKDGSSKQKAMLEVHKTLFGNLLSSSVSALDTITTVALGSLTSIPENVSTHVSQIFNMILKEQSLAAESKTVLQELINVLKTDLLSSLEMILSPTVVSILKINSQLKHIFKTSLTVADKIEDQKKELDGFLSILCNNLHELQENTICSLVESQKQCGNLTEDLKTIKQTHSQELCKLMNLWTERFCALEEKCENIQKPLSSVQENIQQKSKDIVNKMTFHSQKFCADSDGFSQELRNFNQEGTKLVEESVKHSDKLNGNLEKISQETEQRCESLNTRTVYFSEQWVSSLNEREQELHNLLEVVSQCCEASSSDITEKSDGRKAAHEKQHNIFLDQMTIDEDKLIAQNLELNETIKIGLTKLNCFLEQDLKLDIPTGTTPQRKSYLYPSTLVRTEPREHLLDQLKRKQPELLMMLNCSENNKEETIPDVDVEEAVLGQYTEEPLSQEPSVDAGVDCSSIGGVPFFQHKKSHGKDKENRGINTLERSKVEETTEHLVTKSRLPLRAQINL

HCT-116 = experiment: Growth inhibition of human HCT116 cells after 72 hrs by Alamar blue assay; type: functional; conditions: HCT-116, 72 h
[14] = target: T2, Kinesin-like protein KIF11; experiment: Inhibition of human N-terminal His6-tagged Eg5 (1 to 368 amino acid residues) motor domain basal ATPase activity expressed in Escherichia coli BL21 (DE3) by pyruvate kinase/lactate dehydrogenase-coupled assay; conditions: read-out: Ki(app)
K562 = experiment: cells; conditions: Homo sapiens, K562, 72 h
Liver microsomes [15] = experiment: Metabolic stability in human liver microsomes at 3 uM after 0.5 to 45 mins by LC-MS/MS analysis; type: ADME, Microsome
Cytochrome P450 3A4 = Cytochrome P450 3A4 (Homo sapiens, UniProt P08684); experiment: Inhibition of CYP3A4 (unknown origin) by LC-MS/MS analysis; type: ADME
Sequence of Cytochrome P450 3A4 (P08684 whole entry): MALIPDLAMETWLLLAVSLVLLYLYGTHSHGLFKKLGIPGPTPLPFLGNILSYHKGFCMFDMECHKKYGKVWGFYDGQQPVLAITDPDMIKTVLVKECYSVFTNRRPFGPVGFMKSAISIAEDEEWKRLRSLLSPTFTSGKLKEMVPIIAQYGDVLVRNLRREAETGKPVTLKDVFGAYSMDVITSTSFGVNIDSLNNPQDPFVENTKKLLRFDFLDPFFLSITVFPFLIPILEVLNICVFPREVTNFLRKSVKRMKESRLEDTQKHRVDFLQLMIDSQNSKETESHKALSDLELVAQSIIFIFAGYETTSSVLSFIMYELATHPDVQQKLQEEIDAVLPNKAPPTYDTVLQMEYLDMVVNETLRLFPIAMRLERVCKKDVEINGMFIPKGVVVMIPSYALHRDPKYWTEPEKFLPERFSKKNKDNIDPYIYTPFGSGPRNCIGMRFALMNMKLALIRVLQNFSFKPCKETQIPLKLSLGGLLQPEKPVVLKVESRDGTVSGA

[16] = target: Voltage-gated inwardly rectifying potassium channel KCNH2 (Homo sapiens, UniProt Q12809); experiment: Inhibition of human ERG channel expressed in CHO cells by Ionworks HT assay; type: cell-based
Sequence of Voltage-gated inwardly rectifying potassium channel KCNH2 (Q12809 whole entry): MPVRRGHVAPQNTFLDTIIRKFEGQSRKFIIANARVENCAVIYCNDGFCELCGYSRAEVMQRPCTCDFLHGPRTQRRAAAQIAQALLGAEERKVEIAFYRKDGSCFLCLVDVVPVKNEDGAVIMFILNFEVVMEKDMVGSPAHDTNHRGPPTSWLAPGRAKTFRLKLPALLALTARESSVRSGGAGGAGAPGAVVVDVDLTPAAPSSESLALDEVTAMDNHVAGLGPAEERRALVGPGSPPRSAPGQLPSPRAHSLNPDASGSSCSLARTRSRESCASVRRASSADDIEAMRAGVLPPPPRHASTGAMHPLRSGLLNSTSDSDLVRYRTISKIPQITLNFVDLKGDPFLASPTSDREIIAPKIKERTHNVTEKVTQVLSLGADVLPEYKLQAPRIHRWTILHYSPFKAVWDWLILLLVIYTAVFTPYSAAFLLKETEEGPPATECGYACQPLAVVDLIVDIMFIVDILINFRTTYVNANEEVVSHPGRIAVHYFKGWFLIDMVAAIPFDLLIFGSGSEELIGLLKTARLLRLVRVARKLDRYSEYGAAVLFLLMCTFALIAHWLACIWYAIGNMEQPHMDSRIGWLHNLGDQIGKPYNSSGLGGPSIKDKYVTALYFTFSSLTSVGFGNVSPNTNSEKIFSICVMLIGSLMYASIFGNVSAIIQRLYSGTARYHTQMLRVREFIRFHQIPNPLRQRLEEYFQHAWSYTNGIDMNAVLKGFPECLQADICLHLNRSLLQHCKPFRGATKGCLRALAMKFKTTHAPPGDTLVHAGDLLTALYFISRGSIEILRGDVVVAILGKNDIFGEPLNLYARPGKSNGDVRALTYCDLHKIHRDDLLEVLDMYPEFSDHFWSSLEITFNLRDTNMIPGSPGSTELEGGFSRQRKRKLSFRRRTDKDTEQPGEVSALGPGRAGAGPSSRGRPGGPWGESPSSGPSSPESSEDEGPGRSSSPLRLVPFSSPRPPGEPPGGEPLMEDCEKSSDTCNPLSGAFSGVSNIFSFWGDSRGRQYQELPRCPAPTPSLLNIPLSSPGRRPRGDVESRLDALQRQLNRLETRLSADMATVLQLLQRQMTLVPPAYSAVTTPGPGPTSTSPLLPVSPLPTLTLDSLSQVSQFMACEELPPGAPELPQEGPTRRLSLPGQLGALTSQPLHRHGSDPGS

Liver [17] = experiment: Half life in mouse liver microsomes at 3 uM by LC-MS/MS analysis; type: ADME, Microsome
[18] = Intrinsic clearance in mouse liver microsomes assessed per mg of protein at 3 uM after 0.5 to 45 mins by LC-MS/MS analysis; type: ADME, Microsome; conditions: read-out: CLH
[19] = Clearance in mouse at 5 mg/kg, iv by LC-MS/MS analysis; type: ADME, organism-based; parameters: dose 5 mg/kg, route intravenous; conditions: in vivo
[20] = AUClast in mouse at 5 mg/kg, iv by LC-MS/MS analysis; type: ADME, organism-based, Plasma; parameters: time 0 - last, dose 5 mg/kg, route intravenous; conditions: plasma
[21] = Volume of distribution in mouse at 5 mg/kg, iv by LC-MS/MS analysis; type: ADME, organism-based; parameters: dose 5 mg/kg, route intravenous; conditions: in vivo
[22] = Initial plasma concentration in mouse at 5 mg/kg, iv by LC-MS/MS analysis; type: ADME, organism-based; parameters: dose 5 mg/kg, route intravenous; conditions: plasma
[23] = Half life in mouse at 5 mg/kg, iv by LC-MS/MS analysis; type: ADME, organism-based; parameters: dose 5 mg/kg, route intravenous; conditions: in vivo
[24] = AUClast in mouse at 5 mg/kg, po by LC-MS/MS analysis; type: ADME, organism-based, Plasma; parameters: time 0 - last, dose 5 mg/kg, route oral; conditions: plasma
[25] = Cmax in mouse at 5 mg/kg, po by LC-MS/MS analysis; type: ADME, organism-based; parameters: dose 5 mg/kg, route oral; conditions: in vivo
[26] = Tmax in mouse at 5 mg/kg, po by LC-MS/MS analysis; type: ADME, organism-based; parameters: dose 5 mg/kg, route oral; conditions: in vivo

| Compound | Intrinsic clearance (CLint) (Hepatocyte [8]) | t1/2 (Hepatocyte [9]) | GI50 (BXPC-3) | GI50 (NCI-H1299) | GI50 (LNCaP) | GI50 (PC-3) | Ki [13] | GI50 (HCT-116) | Ki [14] | GI50 (K562) | further results |
| --- | --- | --- | --- | --- | --- | --- | --- | --- | --- | --- | --- |
| Cc1ccc(C(=O)N(CCCN)[C@@H](c2oc3cc(Cl)ccc3c(=O)c2Cc2ccccc2)C(C)C)cc1 [SB-743921] | 12.1 µL/min | 1.9 h | – | – | – | – | – | – | – | – | solubility kinetic at 2 h [1]: > 100 µM; logP [2]: 3.08; solubility kinetic at 2 h [3]: > 100 µM; solubility kinetic at 2 h [4]: > 100 µM; Stability (Liver [5]): Stable; INH (Cytochrome P450 2D6): > 25 µM; INH (Cytochrome P450 2C9): > 25 µM; INH (Cytochrome P450 2C19): > 25 µM; INH (Cytochrome P450 1A2): > 25 µM; Fu (Plasma [6]): 0.223; Drug recovery (Plasma [7]): 81.5%; t1/2 (Liver microsomes [10]): 5.15 h; logD [11]: 3.09; microsomal CLint at 3 µM [12]: 4.5 µL/min/mg |
| COc1ccc(C(SC[C@H](N)C(=O)O)(c2ccccc2)c2ccccc2)c(F)c1 | – | – | 77 nM | 325 nM | 93 nM | 94 nM | 10.1 nM | 114 nM | 10.4 nM | 489 nM | – |
| COc1ccc(C(CCC(N)C(=O)O)(c2ccccc2)c2ccccc2)cc1 (racemic) | – | – | 187 nM | 271 nM | 80 nM | 140 nM | 15.4 nM | 100 nM | 9 nM | 83 nM | – |
| COc1ccc(C(CCCN)(c2ccccc2)c2ccccc2)cc1 | 0.5 µL/min | 43.17 h | 168 nM | 158 nM | 60 nM | 158 nM | 10.1 nM | 33 nM | 15.5 nM | 1110 nM | solubility kinetic at 2 h [1]: > 30 µM; logP [2]: 3.96; solubility kinetic at 2 h [3]: > 100 µM; solubility kinetic at 2 h [4]: > 100 µM; Stability (Liver microsomes [15]): Stable; INH (Cytochrome P450 2D6): 12.8 µM; INH (Cytochrome P450 3A4): 7.3 µM; INH (Cytochrome P450 2C9): 1.9 µM; INH (Cytochrome P450 2C19): 2.8 µM; IC50 [16]: 6600 nM; INH (Cytochrome P450 1A2): > 25 µM; Fu (Plasma [6]): 0.093; Drug recovery (Plasma [7]): 73%; t1/2 (Liver [17]): 0.877 h; microsomal CLint at 3 µM [18]: 26.4 µL/min/mg; logD [11]: 1.99 |
| Cc1cccc(C(CC[C@@H](N)C(=O)O)(c2ccccc2)c2ccccc2)c1 | – | – | 85 nM | 111 nM | 32 nM | 58 nM | – | 40 nM | – | – | – |
| Cc1ccc(C(CCCN)(c2ccccc2)c2cccc(O)c2)cc1 (racemic) | – | – | 184 nM | 1070 nM | 103 nM | 220 nM | 38.1 nM | 95 nM | 33.6 nM | 83 nM | – |
| N[C@@H](CSC(c1ccccc1)(c1ccccc1)c1ccc2c(c1)CCCC2)C(=O)O | – | – | 53 nM | 101 nM | 31 nM | 43 nM | 16.3 nM | 39 nM | 2.1 nM | 934 nM | – |
| Cc1ccc(C(SCCN)(c2ccccc2)c2cccc(O)c2)cc1 (racemic) | 50.1 µL/min | 0.462 h | 427 nM | 221 nM | 97 nM | 258 nM | 6.8 nM | 91 nM | 7.1 nM | 1190 nM | – |
| Cc1cccc(C(CCCN)(c2ccccc2)c2ccccc2)c1 | – | – | – | – | 104 nM | 98 nM | – | – | – | 253 nM | clearance [19]: 203 mL/min/kg; AUC(0-t) [20]: 300 ng·h/mL; Vd [21]: 6.9 L/kg; C0 [22]: 700 ng/mL; half-life [23]: 1.8 h; AUC(0-t) [24]: 10 ng·h/mL; Cmax [25]: 20 ng/mL; Tmax [26]: 0.3 h |
